{"source": "patent US10030047B2", "about": "(Hoffmann-La Roche Inc., priority 2015, dated 2018)"}
{"system": "A. baumannii strain ATCC19606", "test": "Minimum inhibitory concentration (MIC) determination, microbroth dilution (CLSI)", "assay_type": "cell-based", "details": "Acinetobacter baumannii; A. baumannii ATCC19606; CAMHB; read after 20 hours; >=80% growth inhibition; read-out: ATCC19606 MIC", "procedure,_shortened": "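CLSI broth microdilution in cation-adjusted Mueller Hinton broth with twofold compound dilutions and ~5×10^5 CFU/ml inoculum, incubated at 35±2 °C. MIC read after 20 h as lowest concentration inhibiting ≥80% of growth, by eye and OD 600 nm.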", "units": {"MIC": "µg/mL"}}
{"smiles": "Cc1[nH]c2ccccc2c1C[C@H]1C(=O)NCc2cc(C(F)(F)F)cc(Cl)c2Sc2ncccc2CN[C@@H](CCCN)C(=O)N[C@@H](CCCCN)C(=O)N1C", "note": "[Example 74, (11S,14S,17S)-14-(4-Amino-butyl)-11-(3-amino-propyl)-25-chloro-16-methyl-17-(2-methyl-1H-indol-3-ylmethyl)-23-trifluoromethyl-2-thia-4,10,13,16,19-pentaaza-tricyclo[19.4.0.0*3,8*]pentacosa-1(25),3(8),4,6,21,23-hexaene-12,15,18-trione]", "MIC": 0.25}
{"smiles": "Cc1[nH]c2ccccc2c1C[C@H]1C(=O)NCc2c(C(F)(F)F)ccc(Cl)c2Sc2ncccc2CN[C@@H](CCCN)C(=O)N[C@@H](CCCCN)C(=O)N1C", "note": "[Example 75, (11S,14S,17S)-14-(4-Amino-butyl)-11-(3-amino-propyl)-25-chloro-16-methyl-17-(2-methyl-1H-indol-3-ylmethyl)-22-trifluoromethyl-2-thia-4,10,13,16,19-pentaaza-tricyclo[19.4.0.0*3,8*]pentacosa-1(25),3(8),4,6,21,23-hexaene-12,15,18-trione]", "MIC": 0.12}
{"smiles": "Cc1[nH]c2ccccc2c1C[C@H]1C(=O)NCc2cc(Cl)cc(Cl)c2Sc2ncccc2CN[C@@H](CCCN)C(=O)N[C@@H](CCCCN)C(=O)N1C", "note": "[Example 76, (11S,14S,17S)-14-(4-Amino-butyl)-11-(3-amino-propyl)-23,25-dichloro-16-methyl-17-(2-methyl-1H-indol-3-ylmethyl)-2-thia-4,10,13,16,19-pentaaza-tricyclo[19.4.0.0*3,8*]pentacosa-1(25),3(8),4,6,21,23-hexaene-12,15,18-trione]", "MIC": 0.12}
{"smiles": "CCN1C(=O)[C@H](CCCCN)NC(=O)[C@H](CCCN)NCc2cccnc2Sc2c(Cl)cc(C(F)(F)F)cc2CNC(=O)[C@@H]1Cc1c[nH]c2ccccc12", "note": "[Example 77, (11S,14S,17S)-14-(4-Amino-butyl)-11-(3-amino-propyl)-25-chloro-16-ethyl-17-(1H-indol-3-ylmethyl)-23-trifluoromethyl-2-thia-4,10,13,16,19-pentaaza-tricyclo[19.4.0.0*3,8*]pentacosa-1(25),3(8),4,6,21,23-hexaene-12,15,18-trione]", "MIC": 0.5}
{"smiles": "CCN1C(=O)[C@H](CCCCN)NC(=O)[C@H](CCCN)NCc2cccnc2Sc2c(Cl)ccc(Cl)c2CNC(=O)[C@@H]1Cc1c[nH]c2ccccc12", "note": "[Example 78, (11S,14S,17S)-14-(4-Amino-butyl)-11-(3-amino-propyl)-22,25-dichloro-16-ethyl-17-(1H-indol-3-ylmethyl)-2-thia-4,10,13,16,19-pentaaza-tricyclo[19.4.0.0*3,8*]pentacosa-1(25),3(8),4,6,21,23-hexaene-12,15,18-trione]", "MIC": 0.25}
{"smiles": "CCN1C(=O)[C@H](CCCCN)NC(=O)[C@H](CCCN)NCc2cccnc2Sc2c(Cl)ccc(C(F)(F)F)c2CNC(=O)[C@@H]1Cc1c[nH]c2ccccc12", "note": "[Example 79, (11S,14S,17S)-14-(4-Amino-butyl)-11-(3-amino-propyl)-25-chloro-16-ethyl-17-(1H-indol-3-ylmethyl)-22-trifluoromethyl-2-thia-4,10,13,16,19-pentaaza-tricyclo[19.4.0.0*3,8*]pentacosa-1(25),3(8),4,6,21,23-hexaene-12,15,18-trione]", "MIC": 0.25}
{"smiles": "CCN1C(=O)[C@H](CCCCN)NC(=O)[C@H](CCCN)NCc2cccnc2Sc2c(Cl)cc(Cl)cc2CNC(=O)[C@@H]1Cc1c[nH]c2ccccc12", "note": "[Example 80, (11S,14S,17S)-14-(4-Amino-butyl)-11-(3-amino-propyl)-23,25-dichloro-16-ethyl-17-(1H-indol-3-ylmethyl)-2-thia-4,10,13,16,19-pentaaza-tricyclo[19.4.0.0*3,8*]pentacosa-1(25),3(8),4,6,21,23-hexaene-12,15,18-trione]", "MIC": 0.12}
{"smiles": "NCCCC[C@@H]1NC(=O)[C@H](CCCN)NCc2cccnc2Sc2c(Cl)cc(Cl)cc2CNC(=O)[C@H](Cc2c[nH]c3ccccc23)NC1=O", "note": "[Example 81, (11S,14S,17S)-14-(4-Amino-butyl)-11-(3-amino-propyl)-23,25-dichloro-17-(1H-indol-3-ylmethyl)-2-thia-4,10,13,16,19-pentaaza-tricyclo[19.4.0.0*3,8*1]pentacosa-1(25),3(8),4,6,21,23-hexaene-12,15,18-trione]", "MIC": 1}
{"smiles": "NCCCC[C@@H]1NC(=O)[C@H](CCCN)NCc2cccnc2Sc2c(Cl)ccc(Cl)c2CNC(=O)[C@H](Cc2c[nH]c3ccccc23)NC1=O", "note": "[Example 82, (11S,14S,17S)-14-(4-Amino-butyl)-11-(3-amino-propyl)-22,25-dichloro-17-(1H-indol-3-ylmethyl)-2-thia-4,10,13,16,19-pentaaza-tricyclo[19.4.0.0*3,8*]pentacosa-1(25),3(8),4,6,21,23-hexaene-12,15,18-trione]", "MIC": 4}
{"smiles": "CCN1C(=O)[C@H](CCCCN)NC(=O)[C@H](CCCN)NCc2cccnc2Sc2c(C)cc(Br)cc2CNC(=O)[C@@H]1Cc1c[nH]c2ccccc12", "note": "[Example 84, (11S,14S,17S)-14-(4-Amino-butyl)-11-(3-amino-propyl)-23-bromo-16-ethyl-17-(1H-indol-3-ylmethyl)-25-methyl-2-thia-4,10,13,16,19-pentaaza-tricyclo[19.4.0.0*3,8*]pentacosa-1(25),3(8),4,6,21,23-hexaene-12,15,18-trione]", "MIC": 0.12}
{"smiles": "CN1C(=O)[C@H](CCCCN)NC(=O)[C@H](Cc2cncn2C)NCc2cccnc2Sc2c(Cl)cc(C(F)(F)F)cc2CNC(=O)[C@@H]1Cc1c[nH]c2ccccc12", "note": "[Example 85, (11S,14S,17S)-14-(4-Amino-butyl)-25-chloro-17-(1H-indol-3-ylmethyl)-16-methyl-11-(3-methyl-3H-imidazol-4-ylmethyl)-23-trifluoromethyl-2-thia-4,10,13,16,19-pentaaza-tricyclo[19.4.0.0*3,8*]pentacosa-1(25),3(8),4,6,21,23-hexaene-12,15,18-trione]", "MIC": 0.5}
{"smiles": "CN1C(=O)[C@H](CCCCN)NC(=O)[C@H](Cc2cccnc2)NCc2cccnc2Sc2c(Cl)cc(C(F)(F)F)cc2CNC(=O)[C@@H]1Cc1c[nH]c2ccccc12", "note": "[Example 86, (11S,14S,17S)-14-(4-Amino-butyl)-25-chloro-17-(1H-indol-3-ylmethyl)-16-methyl-11-pyridin-3-ylmethyl-23-trifluoromethyl-2-thia-4,10,13,16,19-pentaaza-tricyclo[19.4.0.0*3,8*]pentacosa-1(25),3(8),4,6,21,23-hexaene-12,15,18-trione]", "MIC": 16}
{"smiles": "CN1C(=O)[C@H](CCCCN)NC(=O)[C@H](CCCN)NCc2cccnc2Sc2c(cc(-c3ccccc3)cc2C(F)(F)F)CNC(=O)[C@@H]1Cc1c[nH]c2ccccc12", "note": "[Example 87, (11S,14S,17S)-14-(4-Amino-butyl)-11-(3-amino-propyl)-17-(1H-indol-3-ylmethyl)-16-methyl-23-phenyl-25-trifluoromethyl-2-thia-4,10,13,16,19-pentaaza-tricyclo[19.4.0.0*3,8*]pentacosa-1(25),3,5,7,21,23-hexaene-12,15,18-trione]", "MIC": 8}
{"smiles": "CN1C(=O)[C@H](CCCCN)NC(=O)[C@H](CCCN)NCc2cccnc2Sc2c(cc(Br)cc2C(F)(F)F)CNC(=O)[C@@H]1Cc1c[nH]c2ccccc12", "note": "[Example 88, (11S,14S,17S)-14-(4-Amino-butyl)-11-(3-amino-propyl)-23-bromo-17-(1H-indol-3-ylmethyl)-16-methyl-25-trifluoromethyl-2-thia-4,10,13,16,19-pentaaza-tricyclo[19.4.0.0*3,8*]pentacosa-1(25),3,5,7,21,23-hexaene-12,15,18-trione]", "MIC": 0.25}
{"smiles": "CN1C(=O)[C@H](CCCCN)NC(=O)[C@H](CCCN)NCc2cccnc2Sc2c(Cl)cc(Br)cc2CNC(=O)[C@@H]1Cc1c[nH]c2ccccc12", "note": "[Example 89, (11S,14S,17S)-14-(4-Amino-butyl)-11-(3-amino-propyl)-23-bromo-25-chloro-17-(1H-indol-3-ylmethyl)-16-methyl-2-thia-4,10,13,16,19-pentaaza-tricyclo[19.4.0.0*3,8*]pentacosa-1(25),3,5,7,21,23-hexaene-12,15,18-trione]", "MIC": 0.12}
{"smiles": "CN1C(=O)[C@H](CCCCN)NC(=O)[C@H](CCCN)NCc2cccnc2Sc2c(Cl)ccc(Br)c2CNC(=O)[C@@H]1Cc1c[nH]c2ccccc12", "note": "[Example 90, (11S,14S,17S)-14-(4-Amino-butyl)-11-(3-amino-propyl)-22-bromo-25-chloro-17-(1H-indol-3-ylmethyl)-16-methyl-2-thia-4,10,13,16,19-pentaaza-tricyclo[19.4.0.0*3,8*]pentacosa-1(25),3,5,7,21,23-hexaene-12,15,18-trione]", "MIC": 0.25}
{"smiles": "CN1C(=O)[C@H](CCCCN)NC(=O)[C@H](CCCN)NCc2cccnc2Sc2c(cc(C(F)(F)F)cc2C(F)(F)F)CNC(=O)[C@@H]1Cc1c[nH]c2ccccc12", "note": "[Example 91, (11S,14S,17S)-14-(4-Amino-butyl)-11-(3-amino-propyl)-17-(1H-indol-3-ylmethyl)-16-methyl-23,25-bis-trifluoromethyl-2-thia-4,10,13,16,19-pentaaza-tricyclo[19.4.0.0*3,8*]pentacosa-1(25),3,5,7,21,23-hexaene-12,15,18-trione]", "MIC": 0.5}
{"smiles": "CN1C(=O)[C@H](CCCCN)NC(=O)[C@H](CCCN)NCc2cccnc2Sc2c(Cl)cc(N3CCOCC3)cc2CNC(=O)[C@@H]1Cc1c[nH]c2ccccc12", "note": "[Example 92, (11S,14S,17S)-14-(4-Amino-butyl)-11-(3-amino-propyl)-25-chloro-17-(1H-indol-3-ylmethyl)-16-methyl-23-morpholin-4-yl-2-thia-4,10,13,16,19-pentaaza-tricyclo[19.4.0.0*3,8*]pentacosa-1(25),3,5,7,21,23-hexaene-12,15,18-trione]", "MIC": 0.5}
{"smiles": "CN1C(=O)[C@H](CCCCN)NC(=O)CNCc2cccnc2Sc2c(Cl)cc(Cl)cc2CNC(=O)[C@@H]1Cc1c[nH]c2ccccc12", "note": "[Example 93, (14S,17S)-14-(4-Amino-butyl)-23,25-dichloro-17-(1H-indol-3-ylmethyl)-16-methyl-2-thia-4,10,13,16,19-pentaaza-tricyclo[19.4.0.0*3,8*]pentacosa-1(25),3,5,7,21,23-hexaene-12,15,18-trione]", "MIC": 16}
